Results on 20 compounds are retold here after patent publication US20230192626A1 (Baylor College of Medicine, priority 2020, published 2023).

For the experiment, the target named is T1, Human sEH (hsEH) (Homo sapiens, UniProt P34913).
T1 construct: purchased Cayman Chemicals
T1 sequence (P34913 1-555): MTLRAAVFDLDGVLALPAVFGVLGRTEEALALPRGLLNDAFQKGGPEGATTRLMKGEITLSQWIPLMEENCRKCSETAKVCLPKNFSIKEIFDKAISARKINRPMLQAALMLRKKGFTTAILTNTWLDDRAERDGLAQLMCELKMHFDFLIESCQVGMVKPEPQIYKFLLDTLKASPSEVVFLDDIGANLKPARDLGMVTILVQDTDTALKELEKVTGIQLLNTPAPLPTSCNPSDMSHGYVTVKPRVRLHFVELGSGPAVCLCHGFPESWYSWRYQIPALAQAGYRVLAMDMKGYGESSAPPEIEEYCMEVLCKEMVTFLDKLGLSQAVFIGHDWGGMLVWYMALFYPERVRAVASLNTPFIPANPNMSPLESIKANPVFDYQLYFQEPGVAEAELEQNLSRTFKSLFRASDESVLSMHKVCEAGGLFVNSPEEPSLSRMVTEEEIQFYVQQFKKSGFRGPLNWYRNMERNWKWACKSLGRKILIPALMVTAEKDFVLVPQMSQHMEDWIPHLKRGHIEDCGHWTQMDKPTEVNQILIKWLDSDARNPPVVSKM
Nature of the experiment: fluorescence-based sEH biochemical inhibition assay (PHOME substrate). To be noted: Table 1; hsEH 5 nM, PHOME 50 μM, 30° C. On the procedure: The benzimidazole-based compounds synthesized according to Example 1 were measured for activity. Using a fluorescence-based sEH biochemical inhibition assay, the IC50 value was measured for each benzimidazole-based compound. Human sEH (hsEH) and its substrate PHOME were purchased from Cayman Chemicals. IC50 values of hsEH inhibitors were determined by fluorescence. IC50 is defined as the concentration of the inhibitor that blocks 50% of the enzymatic activity. To a 96-well plate containing 10 μL enzyme (5 nM in water), 60 μL of H2O and 10 μL BisTris-HCl buffer (25 mM, pH 7.0) were added inhibitors with different concentrations. The mixture was incubated for 5 min at 30° C. prior to addition of 10 μL of PHOME substrate (50 μM). Fluorescence were measured at 30° C. with an excitation wavelength of 330 nm and an emission wavelength of 465 nm using a BioTek H1 plate reader. The IC50 values were calculated by non-linear regression fitting. The curve was generated from at least three separate runs, each in duplicates. Results are given as means and standard deviations. In Table 1, an IC50 value less than or equal to 1 μM is indicated as an “A.” an IC50 value from greater than 1 μM to less than 10 μM is indicated as a “B′” and an IC50 value of greater than or equal to 10 μM is indicated as a “C.”
Additional benzimidazole-based compounds as described herein were measured for activity according to the procedure outlined in Example 2. Briefly, using a fluorescence-based sEH biochemical inhibition assay, the IC50 value was measured for each benzimidazole-based compound.
Take `Cc1cc2nc(-c3cccnc3)[nH]c2cc1C` [Compound 30, 5,6-dimethyl-2-(pyridin-3-yl)-1H-benzo[d]imidazole]: the IC50 was at least 10 µM.

The compound `CCc1ccc(-c2nc3cc(F)c(F)cc3[nH]2)cc1` [Compound 35, 2-(4-ethylphenyl)-5,6-difluoro-1H-benzo[d]imidazole imidazole] registered an IC50 of at most 1 µM.

`Cc1cc2nc(-c3ccc(F)cc3F)[nH]c2cc1C` [Compound 10, 2-(2,4-difluorophenyl)-5,6-dimethyl-1H-benzo[d]imidazole] had an IC50 of at least 10 µM.

Consider `Cc1cc2nc(Oc3ccc(Br)cc3)[nH]c2cc1C` [Compound 11, 2-(4-bromophenoxy)-5,6-dimethyl-1H-benzo[d]imidazole], for which the IC50 was at least 10 µM.

In turn, `COc1cc(-c2nc3cc(C)c(C)cc3[nH]2)ccn1` [Compound 24, 2-(2-methoxypyridin-4-yl)-5,6-dimethyl-1H-benzo[d]imidazole] returned an IC50 of 1 to 10 µM.

Regarding `Cc1ccc(-c2nc3cc(C)c(C)cc3[nH]2)cn1` [Compound 21, 5,6-dimethyl-2-(6-methylpyridin-3-yl)-1H-benzo[d]imidazole], the IC50 is 1 to 10 µM.

For the compound `Fc1cc2nc(-c3ccc(-c4nnco4)cc3)[nH]c2cc1F` [Compound 58, 2-(4-(5,6-difluoro-1H-benzo[d]imidazol-2-yl)phenyl)-1,3,4-oxadiazole], the IC50 was at least 10 µM.

As to `Fc1cc2nc(-c3ccnc(C(F)(F)F)c3)[nH]c2cc1F` [Compound 50, 5,6-difluoro-2-(2-(trifluoromethyl)pyridin-4-yl)-1H-benzo[d]imidazole], the IC50 fell in the range of 1 to 10 µM.

On to `COC(=O)c1ccc(-c2nc3cc(F)c(F)cc3[nH]2)cc1` [Compound 57, Methyl 4-(5,6-difluoro-1H-benzo[d]imidazol-2-yl)benzoate], for which the half-inhibitory concentration (IC50) was at least 10 µM.

On to `Fc1cc2nc(-c3ccc(Oc4ccccc4)cc3)[nH]c2cc1F` [Compound 53, 5,6-difluoro-2-(4-phenoxyphenyl)-1H-benzo[d]imidazole], for which the 50% inhibitory concentration (IC50) is at most 1 µM.

In the case of `COc1ccc(Nc2nc3cc(C)c(C)cc3[nH]2)cc1OC` [Compound 7, N-(3,4-dimethoxyphenyl)-5,6-dimethyl-1H-benzo[d]imidazol-2-amine], the IC50 fell in the range of 1 to 10 µM.

Turning to `Fc1ccc2[nH]c(-c3ccc(-c4ccccc4)cc3)nc2c1F` [Compound 49, 2-([1,1′-biphenyl]-4-yl)-4,5-difluoro-1H-benzo[d]imidazole], the IC50 is at least 10 µM.

On to `Cc1cc2nc(Nc3ccc(OC(F)(F)F)cc3)[nH]c2cc1C` [Compound 4, 5,6-dimethyl-N-(4-(trifluoromethoxy)phenyl)-1H-benzo[d]imidazol-2-amine], for which the IC50 was in the range of 1 to 10 µM.

The compound `C[C@H](N)c1nc2cc(F)c(F)cc2[nH]1` [Compound 2, (S)-1-(5,6-difluoro-1λ^2-benzo[d]imidazol-2-yl)ethan-1-amine] had an IC50 of at least 10 µM.

`Fc1cc2nc(-c3ccc(-c4ccncc4)cc3)[nH]c2cc1F` [Compound 59, 5,6-difluoro-2-(4-(pyridin-4-yl)phenyl)-1H-benzo[d]imidazole]: the half-inhibitory concentration (IC50) was 1 to 10 µM.

For `Cc1cc2nc(C3CCN(C)CC3)[nH]c2cc1C` [Compound 18, 5,6-dimethyl-2-(1-methylpiperidin-4-yl)-1H-benzo[d]imidazole], the IC50 was at least 10 µM.

Consider `Cc1cc2nc(-c3cccc(C(C)(C)C)c3)[nH]c2cc1C` [Compound 27, 2-(3-(tert-butyl)phenyl)-5,6-dimethyl-1H-benzo[d]imidazole], for which the IC50 was at most 1 µM.

`O=C(Cc1ccccc1)Nc1nc2ccccc2[nH]1` [Compound 13, N-(1H-benzo[d]imidazol-2-yl)-2-phenylacetamide] displayed an IC50 of at least 10 µM.

For `Cc1cc2nc(-c3ccccn3)[nH]c2cc1C` [Compound 25, 5,6-dimethyl-2-(pyridin-2-yl)-1H-benzo[d]imidazole], the IC50 was at least 10 µM.

`Fc1cc2nc(-c3ccc(-c4ccccc4)cc3)[nH]c2cc1Br` [Compound 45, 2-([1,1′-biphenyl]-4-yl)-6-bromo-5-fluoro-1H-benzo[d]imidazole] came in with an IC50 of at most 1 µM.
